Data from patent US9963445B2, “Chemical compounds” (SYNGENTA PARTICIPATIONS AG, priority 2013, dated 2018).

How the values were obtained:
Assay type in all cases: in vivo
[1] = tested on: Echinochloa crus-galli; assay: Post-emergence herbicidal activity, glasshouse pot test; set-up: key: 0 = no damage to plant, 5 = total damage to plant; conditions: Application post-emergence, rate 1000 g/ha, evaluated after 13 days
Outline: (§1)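 Seeds sown in standard soil in pots, grown 8 days in glasshouse (24/16 °C day/night, 14 h light, 65% humidity), then sprayed with aqueous solution from active ingredient formulated in acetone/water (50:50) with 0.5% Tween 20. Plants regrown under same conditions, watered twice daily; damage scored after 13 days (0 none–5 total).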

[2] = tested on: Alopecurus myosuroides; assay: as above; set-up: key: 0 = no damage to plant, 5 = total damage to plant; conditions: Application post-emergence, rate 1000 g/ha, evaluated after 13 days
Outline: as §1

[3] = tested on: Setaria faberi; assay: as above; set-up: key: 0 = no damage to plant, 5 = total damage to plant; conditions: Application post-emergence, rate 1000 g/ha, evaluated after 13 days
Outline: as §1

[4] = tested on: Amaranthus retroflexus; assay: as above; set-up: key: 0 = no damage to plant, 5 = total damage to plant; conditions: Application post-emergence, rate 1000 g/ha, evaluated after 13 days
Outline: as §1

[5] = tested on: zea mays; assay: as above; set-up: key: 0 = no damage to plant, 5 = total damage to plant; conditions: Application post-emergence, rate 1000 g/ha, evaluated after 13 days
Outline: as §1

[6] = tested on: Abutilon theophrasti; assay: as above; set-up: key: 0 = no damage to plant, 5 = total damage to plant; conditions: Application post-emergence, rate 1000 g/ha, evaluated after 13 days
Outline: as §1

[7] = tested on: Echinochloa crus-galli; assay: Pre-emergence herbicidal activity, glasshouse pot test; conditions: pre-emergence spray, rate 1000 g/ha, evaluated after 13 days, scale 0-5
Outline: (§2)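 Test species were sown in pots and, after one day under controlled glasshouse conditions, treated with an aqueous spray of the active ingredient in acetone/water containing 0.5% Tween 20. Evaluation followed 13 days later, scoring plant damage from 0 (none) to 5 (total).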

[8] = tested on: Alopecurus myosuroides; assay: as above; conditions: pre-emergence spray, rate 1000 g/ha, evaluated after 13 days, scale 0-5
Outline: as §2

[9] = tested on: Setaria faberi; assay: as above; conditions: pre-emergence spray, rate 1000 g/ha, evaluated after 13 days, scale 0-5
Outline: as §2

[10] = tested on: Amaranthus retroflexus; assay: as above; conditions: pre-emergence spray, rate 1000 g/ha, evaluated after 13 days, scale 0-5
Outline: as §2

[11] = tested on: zea mays; assay: as above; conditions: pre-emergence spray, rate 1000 g/ha, evaluated after 13 days, scale 0-5
Outline: as §2

[12] = tested on: Abutilon theophrasti; assay: as above; conditions: pre-emergence spray, rate 1000 g/ha, evaluated after 13 days, scale 0-5
Outline: as §2

Row | Compound | ECHCG herbicidal damage score [1] | ALOMY herbicidal damage score [2] | SETFA herbicidal damage score [3] | AMARE herbicidal damage score [4] | ZEAMX herbicidal damage score [5] | ABUTH herbicidal damage score [6] | ECHCG damage score, application pre-emergence [7] | ALOMY damage score, application pre-emergence [8] | SETFA damage score, application pre-emergence [9] | AMARE damage score, application pre-emergence [10] | ZEAMX damage score, application pre-emergence [11] | ABUTH damage score, application pre-emergence [12]
1 | COC1=C(C)C(O)N(c2cc(C(C)(F)F)c(-c3cccnc3)nn2)C1=O (stereo not drawn) [BI21] | 4 | 4 | 4 | 5 | 1 | 3 | 2 | 2 | 3 | 2 | 0 | 2
2 | COC1=C(OC)C(O)N(c2cc(C)c(OC)nn2)C1=O (stereo not drawn) [BK1] | 5 | 4 | 5 | 5 | 3 | 5 | 4 | 4 | 4 | 5 | 2 | 4
3 | CC1=C(Cl)C(=O)N(c2cc(C(F)F)ccn2)C1O (stereo not drawn) [AF34] | 5 | 5 | 5 | 4 | 3 | 5 | 5 | 3 | 5 | 3 | 2 | 5
4 | CC1=C(Cl)C(=O)N(c2ccc(C#N)nn2)C1O (stereo not drawn) [BF14] | 2 | 2 | 3 | 2 | 1 | 1 | 2 | 1 | 0 | 4 | 0 | 5
5 | COC1=C(C)C(O)N(c2cc(C(C)(C)F)c(-c3ccc(F)cc3)nn2)C1=O (stereo not drawn) [BI11] | 4 | 4 | 5 | 5 | 2 | 4 | 2 | 2 | 4 | 5 | 2 | 4
6 | CC1=C(Cl)C(=O)N(c2cc(C(F)(F)F)ncn2)C1O (stereo not drawn) [CF3] | 5 | 5 | 5 | 3 | 4 | 5 | 4 | 3 | 3 | 3 | 1 | 5
7 | CC(C)=C(C)c1cnc(N2C(=O)C(Cl)=C(C)C2O)cc1C(F)(F)F (stereo not drawn) [AF2] | 5 | 4 | 5 | 5 | 1 | 5 | 3 | 0 | 4 | 3 | 0 | 1
8 | COC1=C(C)C(O)N(c2ccc(C(=O)NC(C)(C)C)cn2)C1=O (stereo not drawn) [AI24] | 5 | 4 | 5 | 5 | 4 | 4 | 4 | 3 | 4 | 5 | 1 | 4
9 | CC1=C(Cl)C(=O)N(c2cc(C(C)(C)C)c(Cl)nn2)C1O (stereo not drawn) [BF1] | 5 | 4 | 4 | 5 | 2 | 5 | 2 | 2 | 3 | 5 | 1 | 4
10 | COC1=C(C)C(O)N(c2cc(C(C)F)ccn2)C1=O (stereo not drawn) [AI17] | 5 | 5 | 5 | 5 | 3 | 5 | 5 | 4 | 5 | 5 | 4 | 5
